From US4211764A, “Gastric secretion stimulation with 2-amino-5-(2-aminoethyl)-1,3,4-thiadiozole” (priority 1978, dated 1980)
Where a name gives a salt, the structure may show the parent alone. Read-outs that look alike come from different tables or passages of the source. Blank lines part the entries; values can stand above or below the compound they belong to.

What was measured:
gastric secretion [1] = assay type: in vivo, human; details: hypodermic or intramuscular
Source text: (§1) Special attention was paid to side effects and the reproductibility of the secretory response after repeated administrations of the drug.
The clinical investigation also helped to determine effective doses of the proposed preparation for submaximum and maximum tests and different forms of administration.

[2] = Physical properties of the dichlorohydrate; assay type: physicochemical
Source text: The dichlorohydrate of this compound is white-yellowish crystalline powder. […] Solution of this compound in 0.01 M of hydrochloric acid at a concentration of 10^-4 M has a characteristic absorption spectrum in the UV range with a maximum of 245±±1 nanometers.

H2 -ceptors = H2 -ceptors (Canis lupus familiaris, UniProt P17124); assay: Gastric secretion in dogs with gastric fistula, intramuscular injection; details: animal (dog)
Method: (§2) Chronic experiments were performed on male dogs weighing 20 to 25 kg and having a gastric fistula; prior to experiments, the animals were starved for 18 hours.
The gastric juice was analyzed for titratable acidity and proteolytic activity. The hydrochloric acid output was calculated in milliequivalents (mEq) and that of pepsin in milligrams.

dog's stomach = assay: Gastric secretion in dogs, administration per os; assay type: in vivo; details: thidazine 100 mg per head (parenterally and per os), histamine 10 and 20 mg, histalog 50 and 100 mg
Method: as §2

arterial pressure [3] = assay: Arterial pressure in anesthetized cats; details: in vivo, iv, 0.1 mg/kg
Method: These experiments were performed on 11 cats weighing 2.5 to 4.0 kg and anesthetized with urethane-chlorazol mixture containing 60 mg/kg of chlorazol and 600 mg/kg of urethane. The arterial pressure was measured in the common carotid artery with the aid of a mercury pressure gauge.

H1 -receptors = molecular target: T1, H1 -receptors (Cavia porcellus, UniProt P31389); assay: Contraction of isolated ileum; details: guinea pig ileum; read-out: pD2 value in relation to H1 -receptors (converted)
T1 construct: from tissue; host or cells: isolated guinea pig ileum

H2 -receptors [4] = molecular target: T2, H2 -receptors (Cavia porcellus, UniProt P47747); assay: Heart rate of isolated auricles; details: isolated guinea pig auricles; read-out: pD2 value, H2 -receptors (heart rate) (converted)
T2 construct: from tissue; host or cells: isolated guinea pig auricles (atria)
Method: Changes in the heart rate were measured, dose-response curves were plotted, and pD2 values were calculated.

H2 -receptors [5] = molecular target: H2 -receptors (Rattus norvegicus, UniProt P25102); details: uterus horn
Method: Contractions of an isolated horn of uterus of a rat due to the effect of acetylcholine in a concentration of 1.10^-6 M were recorded on a paper tape.

gastric secretion [6] = details: cited from earlier work; for secretory effect per os: introduced per os, clinical conditions, inactivated by the liver and enzymes
[7] = tested on: cardiovascular system (hypotension); details: relative to histamine; cited from earlier work
[8] = cited from earlier work
[9] = tested on: gastric secretion of patients; assay: Clinical comparison of thidazine with simple histamine test; assay type: in vivo, human; details: 20 patients; thidazine 1.5 mg/kg parenteral, histamine 0.01 mg/kg; >0.05
Source text: as §1

total acidity = assay: Clinical reproducibility of secretory response (total acidity); assay type: in vivo, human; details: 0.01 mg/kg hypodermic
Source text: as §1
Reproducibility of Secretory Response to Introduction
of Thidazine and Histamine with Reference to Total
Acidity Values (each group of patients includes 10 persons)
^(x) Percentage of difference is the relationship of the difference
between the total acidity values registered in the first and second tests
of a patient to the greater of these values.

[10] = tested on: gastric secretion of patients with duodenal ulceration; assay: Clinical comparison in patients with duodenal ulceration; assay type: in vivo, human
Source text: as §1
Histamine and Pentagastrin Upon Main Gastric Secretion
Characteristics of Patients With Duodenal Ulceration

arterial pressure [11] = assay: Arterial pressure in rabbits; details: intravenous, thidazine 0.1 mg/kg, equimolar doses of histamine and histalog
Method: In a series of experiments of 18 rabbits weighing 2.5 to 3.5 kg, each having the common carotid artery in a cutaneous flap, the preparations were injected intravenously.

H2 -receptors [12] = assay: Prevention of thidazine-induced gastric secretion by an H2 -antagonist; assay type: in vivo, dog; details: dogs, methiamide 30 mg/kg before thidazine 2 mg/kg intramuscular
[13] = tested on: gastric secretion of patients of middle age group; assay: Clinical test: effects of maximum doses upon gastric secretion of patients; assay type: in vivo, human; details: for Hourly HCl output: 15 observations
Source text: as §1

Sequence of H2 -receptors (Rattus norvegicus, UniProt P25102) (P25102 whole entry): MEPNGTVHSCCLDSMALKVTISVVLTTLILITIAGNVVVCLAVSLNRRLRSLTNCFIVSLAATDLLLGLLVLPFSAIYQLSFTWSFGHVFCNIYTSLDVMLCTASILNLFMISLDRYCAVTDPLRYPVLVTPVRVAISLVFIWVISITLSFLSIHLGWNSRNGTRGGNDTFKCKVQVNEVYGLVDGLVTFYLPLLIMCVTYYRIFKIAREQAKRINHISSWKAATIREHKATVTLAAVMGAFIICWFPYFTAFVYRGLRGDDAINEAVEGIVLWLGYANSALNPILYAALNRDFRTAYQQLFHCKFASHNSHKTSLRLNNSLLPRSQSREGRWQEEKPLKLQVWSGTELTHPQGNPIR
Sequence of H2 -ceptors (P17124 whole entry): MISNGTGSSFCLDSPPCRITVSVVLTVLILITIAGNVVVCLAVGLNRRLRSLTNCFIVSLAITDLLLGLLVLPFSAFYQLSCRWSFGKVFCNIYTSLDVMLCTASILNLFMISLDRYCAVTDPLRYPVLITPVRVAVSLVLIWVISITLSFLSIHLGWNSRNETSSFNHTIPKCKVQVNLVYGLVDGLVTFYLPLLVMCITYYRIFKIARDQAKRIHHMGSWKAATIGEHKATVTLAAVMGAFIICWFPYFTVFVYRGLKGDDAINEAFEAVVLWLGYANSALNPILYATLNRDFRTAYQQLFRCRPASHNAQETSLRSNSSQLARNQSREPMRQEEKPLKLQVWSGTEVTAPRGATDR
T2 sequence (P47747 whole entry): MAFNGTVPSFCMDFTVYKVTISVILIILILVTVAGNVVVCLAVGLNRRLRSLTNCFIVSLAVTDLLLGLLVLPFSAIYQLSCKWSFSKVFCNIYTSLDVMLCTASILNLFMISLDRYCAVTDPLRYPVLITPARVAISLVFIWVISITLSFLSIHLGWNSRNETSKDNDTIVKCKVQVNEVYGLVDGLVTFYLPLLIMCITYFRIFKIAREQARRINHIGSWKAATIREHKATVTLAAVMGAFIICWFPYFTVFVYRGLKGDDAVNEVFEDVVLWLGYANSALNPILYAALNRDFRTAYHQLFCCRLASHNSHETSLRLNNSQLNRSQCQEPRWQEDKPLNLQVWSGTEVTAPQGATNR
T1 sequence (P31389 whole entry): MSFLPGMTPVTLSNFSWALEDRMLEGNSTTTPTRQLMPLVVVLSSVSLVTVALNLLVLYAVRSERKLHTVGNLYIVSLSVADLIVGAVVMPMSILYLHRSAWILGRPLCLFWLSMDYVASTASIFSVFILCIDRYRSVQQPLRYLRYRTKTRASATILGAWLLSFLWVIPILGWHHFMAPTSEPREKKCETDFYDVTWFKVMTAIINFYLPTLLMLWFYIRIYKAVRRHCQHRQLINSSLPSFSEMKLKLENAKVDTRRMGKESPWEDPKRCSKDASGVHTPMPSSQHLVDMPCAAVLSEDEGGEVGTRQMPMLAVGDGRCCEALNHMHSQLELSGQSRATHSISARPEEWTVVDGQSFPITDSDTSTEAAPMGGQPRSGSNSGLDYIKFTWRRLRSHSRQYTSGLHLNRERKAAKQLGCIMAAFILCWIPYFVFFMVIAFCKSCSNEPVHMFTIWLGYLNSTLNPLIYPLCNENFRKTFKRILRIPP

Structure (SMILES): Cl.Cl.NCCc1c[nH]cn1 [Histamine dichloride, reference compound]
- dose for maximum secretion test (gastric secretion [1]): 0.025 mg/kg
- dose for submaximum secretion test (gastric secretion [1]): 0.008 mg/kg

Structure (SMILES): NCCc1nnc(N)s1 [dihydrochloride of 2-amino-5-(2-aminoethyl)-1,3,4-thiadiazole]
- stability of aqueous solution [2]: stable over prolonged periods of time
- hygroscopicity ([2]; powder): poor hygroscopicity
- reaction (acidity) of solution ([2]; solutions before neutralization to pH 6 to 7): strongly acidic reaction
- solubility in water ([2]; water): readily soluble in water

- reduction of arterial pressure (arterial pressure [3]): 30 mm of mercury
- EC50 (H1 -receptors): 58.9 µM
- Emax (H2 -receptors [5]): 16%
Structure (SMILES): NCCc1cc[nH]n1 [histalog, 3-(5)-(2-aminoethyl)pyrazole, reference compound]
- production of maximum level of hydrochloric acid secretion in the stomach (H2 -ceptors): can produce a maximum level of hydrochloric acid secretion
- gastric secretion after administration per os (dog's stomach): no gastric secretion
- EC50 (H2 -receptors [4]): 15.8 µM
- dose for maximum secretion test (gastric secretion [1]): 1.7 mg/kg
- dose for submaximum secretion test (gastric secretion [1]): 0.9 mg/kg
- secretory response of the stomach (gastric secretion [6]; humans, parenteral, 1 to 5 mg/kg): maximum secretory response of the stomach
- secretory effect per os (gastric secretion [6]): no secretory effect is produced
- capability of stimulating gastric secretion, times less effective than histamine (gastric secretion [6]; relative to histamine): 70 times
- hypotensive effect, times as low as that of histamine [7]: 700 times
- side effects ([8]; in vivo): side effects are observed far less frequently than in the case of histamine

Structure (SMILES): NCCc1c[nH]cn1 [histamine, reference compound]
- production of maximum level of hydrochloric acid secretion in the stomach (H2 -ceptors): can produce a maximum level of hydrochloric acid secretion
- gastric secretion after administration per os (dog's stomach): no gastric secretion
- reduction of arterial pressure (arterial pressure [3]): 100 mm of mercury
- Free Acidity [9]: 81.7+21 units
- HCl Output [9]: 12+0.4 milliequivalents per hour
- Peak HCl Output [9]: 8.8+0.2 milliequivalents
- Total Acidity [9]: 92.0+23 units
- % of difference (fluctuations) of total acidity, first and second tests (total acidity): 0-53%
- Average difference of total acidity (total acidity): 33%
- Chymosin Output ([10]; 1st hour (basal secretion)): 16.0 ± 0.008 units per hour
- Pepsin Output ([10]; 1st hour (basal secretion)): 3.7 ± 1.2 units per hour
- Secretion, milliequivalents per hour ([10]; 1st hour (basal secretion)): 7.0 ± 1.2 Milliequivalents per hour
- Chymosin Output ([10]; 2nd hour): 16.4 ± 0.04 units per hour
- Pepsin Output ([10]; 2nd hour): 4.8 ± 3.0 units per hour
- Secretion, milliequivalents per hour ([10]; 2nd hour): 19.4 ± 1.6 Milliequivalents per hour
- Emax (H2 -receptors [5]): 100%
- secretory effect per os (gastric secretion [6]): no secretory effect is produced
- side effects ([8]; patients): reddening of the skin, nausea, vomiting, headache, dizziness, bronchospasm, edema of the rima vocalis, hypotension, and shocks
- reduction of arterial pressure (arterial pressure [11]): 40 mm of mercury

Structure (SMILES): CNC(=S)NCCSCc1nc[nH]c1C [methiamide]
- prevention of thidazine secretory effect (H2 -receptors [12]): completely prevented

Structure (SMILES): CSCC[C@H](NC(=O)[C@H](Cc1c[nH]c2ccccc12)NC(=O)CCNC(=O)OC(C)(C)C)C(=O)N[C@@H](CC(=O)O)C(=O)N[C@@H](Cc1ccccc1)C(N)=O [pentagastrin, reference compound]
- HCl Concentration ([13]; 1st hour (basal secretion)): 35.3 milliequivalents per liter
- HCl Concentration ([13]; 2nd hour (response to drug)): 94.0 milliequivalents per liter
- Gastric Juice, Δ% ([13]; 2nd versus 1st hour): +63.7%
- Hourly HCl output, Δ% ([13]; 2nd versus 1st hour): +345.9%
- Hourly HCl output ([13]; 1st hour (basal secretion)): 3.7 milliequivalents per hour
- Hourly HCl output ([13]; 2nd hour (response to drug)): 16.5 milliequivalents per hour
- Gastric Juice ([13]; pentagastrin 6 mg/kg, 1st hour (basal secretion)): 106.3 ml per hour
- Gastric Juice ([13]; pentagastrin 6 mg/kg, 2nd hour (response to drug)): 174.0 ml per hour
- HCl Concentration, Δ% ([13]; pentagastrin 6 mg/kg, 2nd versus 1st hour): +166.3%
- Chymosin Output ([10]; 1st hour (basal secretion)): 157.3 ± 5.9 units per hour
- Pepsin Output ([10]; 1st hour (basal secretion)): 3.3 ± 0.8 units per hour
- Secretion, milliequivalents per hour ([10]; 1st hour (basal secretion)): 7.4 ± 0.8 Milliequivalents per hour
- Pepsin Output ([10]; 2nd hour): 19.3 ± 3.8 units per hour
- Secretion, milliequivalents per hour ([10]; 2nd hour): 24.8 ± 1.5 Milliequivalents per hour
- secretory effect per os (gastric secretion [6]): no secretory effect is produced
- duration of effect of a single dose (gastric secretion [6]; single dose): does not last long
- level of secretion (gastric secretion [6]; sufficient dose): can produce a maximum level of secretion
- side effects ([8]; patients): can produce allergic and anaphylactic reactions as a result of repeated administrations

Structure (SMILES): Cc1[nH]cnc1CCN [5-methylhistamine]
- secretory effect per os (gastric secretion [6]): no secretory effect is produced
